For one series, the system named is Mycoplasma synoviae. Put plainly: In vitro broth-dilution studies, mycoplasma (Table X). The series is classed as cell-based. From the text:
(§1) Activity against mycoplasma is another useful aspect of the antimicrobial activity of the A-32887 compounds. Mycoplasma species, also known as pleuropneumonia-like (PPLO) organisms, are pathogenic to man and various animals. Anti-mycoplasma agents are especially needed by the poultry industry. The MIC's of A-32887 (Na-K salt) against typical mycoplasma species, as determined by in vitro broth-dilution studies, are summarized in Table X: […]

The next series deals with Mycoplasma hyopneumoniae. The series is described as above. The series is classed as cell-based.
Source text: as §1

A further series concerns Mycoplasma gallisepticum. The series is described as above. In kind it is cell-based.
Source text: as §1

Another series has as its system Mycoplasma hyorhinis. Described as above. The series is classed as cell-based.
Source text: as §1

Series [1] in a line: Acute toxicity, intraperitoneal, mice. The series is classed as in vivo. To be noted: intraperitoneally.
The test system of another series is guinea pig left atria. The experiment in a line: Cardiac contractility of guinea pig left atria. To be noted: 10^-5 molar; percentage of maximal force elicited by a challenge dose of norepinephrine. From the text: The A-32887 compounds are potential cardiotonic agents. In tests using guinea pig left atria, A-32887 (Na-K salt) increased cardiac contractility. Response to this test is expressed as a percentage of the maximal force that could be elicited by a challenge dose of norepinephrine. A-32887 (Na-K salt), at a 10^-5 molar concentration, increased cardiac contractility by 28.0 ± 7.1 percent.

On to `CO[C@H]1CC[C@H](OC2[C@@H](C)[C@@](C)(O)O[C@H]([C@H]3CC[C@H]([C@@H]4CC[C@H]([C@@]5(C)O[C@]6(O[C@H](C[C@@H]7O[C@](O)([C@@H](O)C(=O)O)[C@@H](C)[C@H](OC)[C@@]7(C)OC)C[C@@H](OC)[C@H]6C)[C@H](C)[C@H]5OC)O4)O3)[C@H]2C)O[C@@H]1C.[K+].[Na+]` (stereo partly drawn) [A-32887 (Na-K salt)], for which the MIC against Mycoplasma synoviae turned out to be 3.12 µg/mL; in the series on Mycoplasma hyopneumoniae, 6.25 µg/mL; against Mycoplasma gallisepticum, 12.5 µg/mL; with Mycoplasma hyorhinis it was 25.0 µg/mL. Moreover, the LD50 in series [1] was found to be 37.5 mg/kg × 1. Besides, the “increase in cardiac contractility” value in the series with guinea pig left atria is on record as 28.0 ± 7.1%.

The record behind these values is US4133876A, “Antibiotic A-32887 and process for production thereof” (Eli Lilly and Company, priority 1977, dated 1979).
